Test [1] relates to proteasome. The experiment in a line: Proximity labeling (BioID) with PSMA4-miniTurbo, streptavidin enrichment and DIA mass spectrometry, with proteasome inhibition. Type of test: cell-based, Homo sapiens. The protocol:
For the “BioID” experiments, HEK293T lines were seeded at the density of approximately 1.6×10^4 cells/cm2 and incubated for 24 hours to allow cell attachment to the culture dish. The expression of BirA* or miniTurbo fusion proteins were induced by a single addition of tetracycline stock (solved in ethanol) exposing the cells to its final concentration of […] in total for 4 days. 2 hours (miniTurbo lines) or 24 hours (BirA* lines) prior to cell harvesting, 50 μM biotin was added to the culture media. For identification of proteasome substrates, PSMA4-miniTurbo or miniTurbo expressing cells were treated with 20 μM MG132 for 4 hours and/or 10 μM KB02-JQ1 for 12 hours. Upon treatment, cells were washed 3×times with PBS and harvested by trypsinization. For each sample, a pellet corresponding to 20 million cells was collected and snap-frozen in liquid nitrogen.
Cell pellets were thawed on ice were resuspended in 4.75 ml of BioID lysis buffer (50 mM Tris pH 7.5; 150 mM NaCl; 1 mM EDTA; 1 mM EGTA; 1% (v/v) Triton X-100; 1 mg/ml aprotinin; 0.5 mg/ml leupeptin; 250 U turbonuclease; 0.1% (w/v) SDS), followed by 1 hour incubation in the rotator mixer (STARLAB RM Multi-1) (15×rpm) at 4° C. to aid the lysis. Samples were then briefly sonicated in a Bioruptor Plus for 5 cycles (30 s ON/30 s OFF) at high setting and afterwards centrifuged at 20817×g, for 30 minutes at 4° C. to remove any debris.
Streptavidin coated Sepharose beads were acetylated by two successive treatments with 10 mM Sulfo-NHS-Acetate for 30 minutes at room temperature. The reaction was then quenched with 1 M Tris pH 7.5 (1:10 v/v) and then the beads were washed with 1×PBS and centrifuged at 2000×g for 1 minute at room temperature. This washing was performed 3 times in total. Cleared lysates were transferred to new tubes, 50 μl of acetylated beads added, and samples were incubated for 3 hours on the rotator (15×rpm) at 4° C. This was followed by centrifugation at 2000×g for 5 minutes at 4° C. and removal of 4.5 ml of the supernatant from each sample. […]

Test [2] deals with proteasome chymotrypsin-like activity. As to the kind of experiment: Proteasome activity assay (LLVY-AMC cleavage) on cell lysates. Format: cell-based, Homo sapiens. To be noted: lysates of HEK293T lines expressing BirA* fusion proteins or BirA* control; 24 hours with vs without tetracycline. The protocol: Proteasome activity assay: The proteasome activity assay (PAA) was performed using the 20S proteasome activity assay kit (Millipore, APT280) following the manufacturer instructions. In short, cell pellets were thawed in ice-cold lysis buffer (50 mM HEPES pH 7.5; 5 mM EDTA; 150 mM NaCl; 1% (v/v) Triton X-100; 2 mM ATP) and left on ice for 30 minutes with short vortex steps (VWR international, VWR/444-1372) every 10 minutes. Samples were centrifuged at 20817×g, for 15 minutes at 4° C. to remove any debris. For protein amount estimation the EZQ Protein Quantitation Kit (Invitrogen, R33200) was used. 50 μg of protein extract were incubated with fluorophore-linked peptide substrate (LLVY-7-amino-4-methylcoumarin, AMC) for 60 minutes at 37° C. Proteasome activity was measured by quantification of fluorescent units from cleaved AMC at 380/460 nm using a microplate reader m1000 (Tecan).

Residues, ends and D or L forms follow the SMILES beside them. *: point of attachment. Cbz = O=C(OCc1ccccc1)*

Regarding `CC(C)C[C@@H](C=O)NC(=O)[C@H](CC(C)C)NC(=O)[C@H](CC(C)C)NC(=O)OCc1ccccc1` [MG132] (Cbz-Leu-Leu-Leu-aldehyde), the “impact on the biotinylated proteins quantified by mass spectrometry (principal component analysis)” value in test [1] (HEK293T PSMA4-miniTurbo, 20 μM MG132 4 hours) is reported as “clear impact”. For the same compound, the “number of proteins enriched relative to miniTurbo control only in presence of MG132 (potential proteasome substrates)” value in test [1] (HEK293T PSMA4-miniTurbo, 20 μM MG132 4 hours, log 2 fold change>1 and Q value<0.05) was found to be 296 proteins. Besides, in test [1] (HEK293T cells expressing PSMA4-miniTurbo, 20 μM MG132 for 4 hours, biotin 2 hours), the “enrichment of proteasome activators and ubiquitin in streptavidin pull downs, MG132-treated versus control cells” value is “prominent enrichment of proteasome activators and ubiquitin”.
For `CN(C)[C@@H]1C(O)=C(C(N)=O)C(=O)[C@@]2(O)C(O)=C3C(=O)c4c(O)cccc4[C@@](C)(O)[C@H]3C[C@@H]12` [tetracycline], the “reduction of proteasome activity following addition of tetracycline” value in test [2] is given as 15-20%.

These data come from US20260243776A1, “A METHOD FOR DETECTING PROTEIN TARGETS OF AN ENZYME USING A BIOTIN LIGASE” (Leibniz-Institut für Alternsforschung - …, priority 2022, published 2026).
